Experimental data: patent US20110105477A1, “COMPOSITIONS AND METHODS RELATING TO HIV PROTEASE INHIBITION” (The Regents of the University of Michigan, priority 2007, published 2011)

What follows are compounds tested against HIV-1 protease (Human immunodeficiency virus type 1 group M subtype B, UniProt P04585) (assay: HIV protease inhibition assay). Conditions: not given.
Type: biochemical

| Compound | activity in HIVp inhibition assay (in words) |
| --- | --- |
| CC1=CC(C)(C)Nc2ccc(OC(=O)c3ccccc3Br)cc21 [Compound 3] | active |

Same assay, conditions: HIVp inhibition

| Compound | IC50 |
| --- | --- |
| COc1ccc(C(=O)Oc2ccc3c(c2)C(C)=CC(C)(C)N3)cc1 [Compound 2] | 18 µM |

Same assay, conditions: remaining HIV-1 protease activity at 150 μM compound

| Compound | Remain Activity |
| --- | --- |
| CC1=CC(C)(C)Nc2ccc(OC(=O)c3cccs3)cc21 | 64.08% |
| O=c1c2c([nH]c3nc(COc4ccccc4)nn13)CCC2 | 57.77% |
| CCOc1ccccc1CNc1nc2[nH]c3c(c(=O)n2n1)CCC3 | 75.44% |
| Cc1cc(=O)n2nc(NCc3cccs3)nc2[nH]1 | 63.59% |
| COc1cc(OC)cc(C(=O)Oc2ccc3c(c2)C(C)=CC(C)(C)N3)c1 | 59.22% |
| CC1=CC(C)(C)Nc2ccc(OC(=O)c3ccco3)cc21 | 69.67% |
| Cc1[nH]c2nc(NCc3cccc(Br)c3)nn2c(=O)c1Cl | 71.2% |
| CC1=CC(C)(C)Nc2ccc(OC(=O)c3cccc4ccccc34)cc21 | 65.34% |
| O=C(Nc1ccc2[nH]c(=S)sc2c1)c1ccccc1 | 65.14% |
| CC1=CC(C)(C)Nc2ccc(OC(=O)c3ccccc3Br)cc21 [drawing 433] | 65.33% |
| O=C(Nc1ccc(F)cc1F)c1cc2n(n1)[C@H](C(F)(F)F)[C@H]1CCCC[C@H]1N2 | 64.91% |
| CC1=CC(C)(C)Nc2ccc(OC(=O)c3sc4cc([N+](=O)[O-])ccc4c3Cl)cc21 | 56.93% |
| Cc1cc(=O)n2nc(N3C(=O)[C@H]4CCCC[C@H]4C3=O)nc2[nH]1 | 67.49% |
| CC1=CC(C)(C)Nc2ccc(OC(=O)c3ccc4c(c3)OCO4)cc21 | 63.58% |
| CC1=CC(C)(C)Nc2ccc(OC(=O)c3cccnc3)cc21 | 58.86% |
| CC1=NNc2nc3c(c(=O)n(Cc4ccccc4)c(=O)n3C)n2C1 | 65.08% |
| CC1=CC(C)(C)Nc2ccc(OC(=O)c3cccc([N+](=O)[O-])c3)cc21 | 73.01% |
| O=C1[C@H]2CCCC[C@H]2C(=O)N1c1ccc2[nH]c(=S)sc2c1 | 51.9% |
| O=C1c2cccc([N+](=O)[O-])c2C(=O)N1c1ccc2[nH]c(=S)sc2c1 | 36.93% |
